In US4042693A, “Derivatives of 1,2,4-thiadiazine” (A. Christiaens Societe Anonyme, priority 1975, dated 1977):

System: paw of rats
Assay: Anti-inflammatory test: carrageenan-induced rat paw swelling (plethysmography), oral
Assay type: in vivo
Conditions: oral route one hour before carrageenan injection, swelling determined 4 hours after injection, versus control group, dose not given
Experimental: The compounds to be tested are given as freshly prepared solutions or suspensions by oral route one hour before injecting the paw of rats with carrageenan which is a known inflammatory agent.
The inflammatory agent (carrageenan) either in solution or suspension is then injected into the plantar tissue of the right hind paw of each rat, the left paw remaining untreated and serving as control. Each animal receives, for example, 0.05 ml of an aqueous solution containing 1% by weight of carrageenan and 0.9% of sodium chloride.
4 Hours after the injection of the inflammatory agent, the importance of swelling is determined by plethysmography and is expressed as a percent of the volume of the control paw.
The anti-inflammatory effect expressed as a percentage of inhibition is obtained by comparison between rats treated with the anti-inflammatory compound and a control group of rats.

Compound | % inhibition of acute oedema [%]
O=S1(=O)N=C(c2ccccc2)N(c2cccc(C(F)(F)F)c2)c2ccncc21 [Example 1, 3-phenyl-4-metatrifluoromethylphenyl-4H-pyridino-[4,3-e]-1,2,4-thiadiazine-1,1-dioxide] | 53.6
COc1cccc(N2C(c3ccccc3Cl)=NS(=O)(=O)c3cnccc32)c1 [Example 4, 3-orthochlorophenyl-4-(3-methoxyphenyl)-4H-pyrido-[4,3-e]-1,2,4-thiadiazine-1,1-dioxide] | 40
CCc1cccc(N2C(c3ccc(Cl)cc3)=NS(=O)(=O)c3cnccc32)c1 [Example 3, 3-parachlorophenyl-4-(3'-ethylphenyl)-4H-pyrido-[4,3-e]-1,2,4-thiadiazine-1,1-dioxide] | 60
O=S1(=O)N=C(c2ccc(Cl)cc2)N(c2cc(Cl)cc(Cl)c2)c2ccncc21 [Example 2, 3-parachlorophenyl-4-(3',5'-dichlorophenyl)-4H-pyridino-[4,3-e]-1,2,4-thiadiazine-1,1-dioxide] | 57
